Results on three compounds are retold here after patent publication US20210177881A1, “MEDICAMENT FOR PREVENTING AND/OR TREATING PAIN AND/OR FEVER, COMPOSITE PRODUCT AND USE THEREOF” (SHANGHAI TONGLIAN PHARMACEUTICAL CO., LTD., priority 2018, published 2021).

The test system of data set [1] is rats of the LPS fever model. The experiment in a line: LPS-induced common fever model in rats. The format is in vivo, Sprague Dawley rats. Particulars: 30 mg/kg intragastric. The procedure: Male healthy Sprague Dawley rats (SPF), with a weight of 220-260 g, purchased from Liaoning Changsheng Biotechnology Co., Ltd., with a license number of SCXK (Liao) 2015-0001. […] Sodium chloride injection ([…], 500 mL): (Shijiazhuang No.4 Pharmaceutical Co., Ltd), Batch number: 101217406; 0.9% sodium chloride injection was dissolved and diluted to 1 mg/ml, then packed in EP tubes and stored at −80 DEG C. for later use; immediately before use, it was diluted with 0.9% sodium chloride injection into a sterile injection of 10 μg /ml(100 μg /kg). Male SD rats, with a weight of 220-260 g, were fed adaptively for 3 days, ate food and drank water freely with 12 hours of day-night circle. […] Each group was administrated with the drug based on 1 ml/100 g body weight by intragastric administration.

The subject of data set [2] is rats of the dry yeast fever model. The experiment in a line: Common fever model of rats induced by dry yeast. The settings on record: 30 mg/kg intragastric. The format is in vivo. Here is the method:
Male SD rats, with a weight of 220-260 g, were fed adaptively for 3 days, ate food and drank water freely with 12 hours of day-night circle. […] Each group was administrated with the drug based on 1 ml/100 g body weight by intragastric administration. […] Operating steps: except that the LPS in Experiment 1 was replaced by the dry yeast, other experimental operating steps and dosage selections were the same as those in Experiment 1.

For data set [3] the following is noted: literature reports; cited from earlier work.
For data set [4], the system named is mice. Description: Analgesia experiment on a hot plate in mice. Format: in vivo, Kunming mice. The settings on record: 15 mg/kg. The text has this:
The mouse hot plate method is a classic method for screening analgesics. Its principle is to put the mouse on a hot plate heated to a constant temperature of (55±0.1 DEG C.) in advance, and when the foot of the mouse is stimulated by the hot plate to produce pain, the time required for foot licking is taken as the pain threshold, which is taken as the observation index, and the changes of threshold before and after medication are compared to evaluate the analgesic effect.
Before the experiment, the mice in each group were given intragastric administration. The mice in the blank control group were given the same volume of normal saline every day for 3 consecutive days.
The mice were put on a hot plate pain meter heated to 55 DEG C. in advance, and the time from putting into the hot plate to licking hind feet was recorded with a stopwatch as the pain threshold of the mice. […] It was measured once at 30, 60, 90 and 120 min after administration. After the end of the experiment, the percentage of pain threshold increase was calculated according to the measured average value of pain threshold. The percentage of pain threshold increase %=(an average pain threshold after administration−an average pain threshold before administration)÷the average pain threshold before administration×100%.

Data set [5] relates to rats with tibial cancer pain. Description: van Frey mechanical pain threshold in rats with tibial cancer pain (Walker256). Format: in vivo, rat. The procedure:
Walker rat breast cancer cells were purchased from Shanghai Institute of Biomedical Engineering. The abdominal cavity of female Wistar rats of 70-80 g was inoculated with 1 ml of ascites tumor (about 2×10^7 cells /ml). After 7-10 days, 5 ml of ascites was extracted and centrifuged for 3 minutes (1300 rpm). After precipitation, washing was performed with 10 ml PBS, and then centrifuged and precipitated again. Then, resuspending was performed with PBS, counting was performed, the cell concentration was adjusted to 1×10^7 cells/ml by PBS and placed in an ice box for later use.
Rats were anesthetized by intraperitoneal injection of 10% chlorate hydrate (4 ml/kg body weight), a skin was prepared at the right knee joint, and the skin was disinfected with 75% alcohol. The knee joint was fixed with the left hand to make the skin on its surface tense. A hole with a depth about 1 cm was drilled along the longitudinal axis of tibia at the medial edge of patellar ligament of the knee joint with a 7# needle. Then, a microsampler with tumor cells (before injection, 1 μl of air, 2 μl of gelatin sponge aqueous solution, 1 μl of air, 4 μl of tumor cells or PBS were inhaled in turn) was used, and 4 μl of tumor cells was injected into the tibia bone marrow cavity; The rats in the control group were injected with the same amount of PBS, and finally all of them were sealed with 2 μl of gel sponge solution. After injection, the needles were kept for 1 minute to prevent the injection from oozing out.
Rats were divided into two groups: a PBS injection control group and a Walker256 model group. The radiation paw withdrawal latency (PWL) was measured before modeling as the basic pain threshold, and the PWL was measured every other day after modeling as the thermal hyperalgesia threshold. At the same time, the mechanical pain caused by von Frey filament was measured. The threshold of mechanical pain was measured before modeling as the basic pain threshold, and the threshold of mechanical allodynia was measured every other day after modeling.
After successfully establishing the model of tibia cancer pain, continuous intragastric administration was performed for 12 days. The rats in the model group were intragastrically given the same volume of normal saline.

Data set [6] relates to mice. The experiment in a line: Analgesic experiment of writhing method in mice (acetic acid). Format: in vivo, Kunming mice. The settings on record: 15 mg/kg once on the day of the experiment. (In general: An intraperitoneal irritant provokes the stretching counted in writhing tests.)
[7] abbreviates: 15 mg/kg on the last day, same side.

Turning to `CC(C)Cc1ccc(C(C)C(=O)O)cc1` (centres unmarked) [ibuprofen, Ibuprofen], the “after administration ΔT” value in data set [1] (1 h) is 0.27 ± 0.27 °C; in data set [1] (2 h), 0.33 ± 0.43 °C; in data set [1] (4 h), 0.34 ± 0.38 °C; in data set [1] (6 h), 1.23 ± 0.24 °C; in data set [1] (8 h) it was 1.32 ± 0.24 °C; in data set [1] (10 h), 1.23 ± 0.39 °C. For the same compound, the “after administration ΔT” value in data set [2] (1 h) came out at 0.26 ± 0.26 °C; in data set [2] (2 h), 0.40 ± 0.31 °C; in data set [2] (4 h), 0.54 ± 0.38 °C.
Turning to spiramycin, in data set [3], the absolute oral bioavailability is on record as 30-40%.
For `CN1CC[C@]23c4c5ccc(O)c4O[C@H]2[C@@H](O)C=C[C@H]3[C@H]1C5.Cl` [positive control, morphine hydrochloride], the “Percentage of pain threshold increase” value worked out at 68.11% in the data set with mice [4] (30 min), 54.01% with mice [4] (60 min), 51.90% with mice [4] (90 min) and 38.17% with mice [4] (120 min). The “analgesic rate, opposite side” value in data set [5] (15 mg/kg on the last day) was 133.3%; in data set [5] (80 mg/kg intragastric, 12 days) it was 125.9%. Besides, the “van Frey mechanical pain threshold, opposite side” value worked out at 6.3 ± 0.5 g in data set [5] (15 mg/kg on the last day) and 6.1 ± 0.2 g in data set [5] (80 mg/kg intragastric, 12 days). For the same compound, the “analgesic rate, same side” value in data set [5] (setting [7]) worked out at 205.5%. Besides, the “van Frey mechanical pain threshold, same side” value is 5.5 ± 0.2 g in data set [5] (setting [7]) and 5.2 ± 0.6 g in data set [5] (80 mg/kg intragastric, 12 days, same side). Moreover, the analgesic rate in the data set on mice [6] is 45.83%. This compound returned a times of writhing in the data set on mice [6] of 30.17 ± 6.14 n.
